From the NIST ThermoML archive (doi:10.1021/je8001255)

Assay: an = ratio of the nth substance listed, in mol/kg
Settings: 100 kPa, Liquid; for electrical conductivity: Alternating current cell with electrodes

O=S(=O)([O-])[O-].[Mn+2] [manganese(II) sulfate] + O
Settings | electrical conductivity, 278.15 K [S/m] | electrical conductivity, 283.15 K [S/m] | electrical conductivity, 288.15 K [S/m] | electrical conductivity, 293.15 K [S/m] | electrical conductivity, 298.15 K [S/m] | electrical conductivity, 303.15 K [S/m] | electrical conductivity, 308.15 K [S/m] | mass density, 298.15 K [kg/m3]
a1 = 0.00499 | 0.0524 | 0.06 | 0.068 | 0.0761 | 0.0844 | 0.0928 | 0.101 | 997.79
a1 = 0.00999 | 0.0922 | 0.106 | 0.119 | 0.134 | 0.148 | 0.162 | 0.177 | 998.55
a1 = 0.01997 | 0.16 | 0.183 | 0.207 | 0.231 | 0.255 | 0.279 | 0.303 | 1000.02
a1 = 0.05028 | 0.333 | 0.38 | 0.428 | 0.477 | 0.526 | 0.575 | 0.622 | 1004.5
a1 = 0.1005 | 0.575 | 0.656 | 0.739 | 0.822 | 0.905 | 0.987 | 1.07 | 1011.91
a1 = 0.1991 | 1.01 | 1.15 | 1.29 | 1.44 | 1.58 | 1.72 | 1.86 | 1026.55
a1 = 0.3159 | 1.39 | 1.59 | 1.78 | 1.98 | 2.18 | 2.37 | 2.56 | 1044.23
a1 = 0.4963 | 1.93 | 2.2 | 2.47 | 2.75 | 3.03 | 3.3 | 3.57 | 1072.29
a1 = 0.7442 | 2.5 | 2.85 | 3.21 | 3.57 | 3.93 | 4.29 | 4.65 | 1112.53
a1 = 0.9865 | 2.95 | 3.36 | 3.79 | 4.22 | 4.65 | 5.08 | 5.5 | 1153.87
a1 = 1.208 | 3.07 | 3.51 | 3.97 | 4.44 | 4.91 | 5.38 | 5.85 | 1194.32
a1 = 1.384 | 3.1 | 3.57 | 4.04 | 4.53 | 5.03 | 5.52 | 6.02 | 1227.02
a1 = 1.653 | 2.98 | 3.44 | 3.93 | 4.43 | 4.95 | 5.46 | 5.98 | 1280.18
a1 = 1.826 | 2.78 | 3.25 | 3.72 | 4.21 | 4.72 | 5.23 | 5.75 | 1318.47
a1 = 2.082 | 2.41 | 2.84 | 3.29 | 3.76 | 4.25 | 4.74 | 5.24 | 1371.35
a1 = 2.189 | 2.19 | 2.6 | 3.02 | 3.47 | 3.93 | 4.41 | 4.89 | 1398.09
a1 = 2.434 | 1.6 | 1.93 | 2.28 | 2.66 | 3.06 | 3.48 | 3.9 | 1452.93

O=S(=O)([O-])[O-].[Cu+2] [copper sulfate] + O
Settings | electrical conductivity, 278.15 K [S/m] | electrical conductivity, 283.15 K [S/m] | electrical conductivity, 288.15 K [S/m] | electrical conductivity, 293.15 K [S/m] | electrical conductivity, 298.15 K [S/m] | electrical conductivity, 303.15 K [S/m] | electrical conductivity, 308.15 K [S/m] | mass density, 298.15 K [kg/m3]
a1 = 0.00666 | 0.0666 | 0.0763 | 0.0863 | 0.0965 | 0.107 | 0.117 | 0.128 | 998.16
a1 = 0.02534 | 0.196 | 0.224 | 0.253 | 0.282 | 0.311 | 0.34 | 0.369 | 1001.26
a1 = 0.04942 | 0.319 | 0.365 | 0.412 | 0.459 | 0.506 | 0.553 | 0.598 | 1005.23
a1 = 0.09691 | 0.543 | 0.621 | 0.7 | 0.78 | 0.86 | 0.938 | 1.01 | 1013.09
a1 = 0.2535 | 1.17 | 1.34 | 1.51 | 1.68 | 1.85 | 2.02 | 2.19 | 1039.39
a1 = 0.3778 | 1.61 | 1.84 | 2.07 | 2.31 | 2.54 | 2.78 | 3 | 1060.88
a1 = 0.4881 | 1.95 | 2.23 | 2.52 | 2.81 | 3.1 | 3.39 | 3.68 | 1080.51
a1 = 0.6806 | 2.49 | 2.85 | 3.23 | 3.6 | 3.99 | 4.37 | 4.74 | 1115.98
a1 = 0.7935 | 2.75 | 3.15 | 3.57 | 4 | 4.43 | 4.87 | 5.29 | 1137.68
a1 = 0.9197 | 3 | 3.45 | 3.92 | 4.4 | 4.88 | 5.37 | 5.85 | 1162.72
a1 = 1.037 | 3.22 | 3.7 | 4.21 | 4.73 | 5.25 | 5.79 | 6.32 | 1186.79
a1 = 1.138 | 3.34 | 3.85 | 4.39 | 4.94 | 5.51 | 6.08 | 6.66 | 1208.14
a1 = 1.198 | 3.4 | 3.93 | 4.48 | 5.06 | 5.64 | 6.24 | 6.83 | 1220.58

O=S(=O)([O-])[O-].[Zn+2] [zinc sulfate] + O
Settings | electrical conductivity, 278.15 K [S/m] | electrical conductivity, 283.15 K [S/m] | electrical conductivity, 288.15 K [S/m] | electrical conductivity, 293.15 K [S/m] | electrical conductivity, 298.15 K [S/m] | electrical conductivity, 303.15 K [S/m] | electrical conductivity, 308.15 K [S/m] | mass density, 298.15 K [kg/m3]
a1 = 0.00628 | 0.0627 | 0.072 | 0.0816 | 0.0916 | 0.102 | 0.112 | 0.122 | 998.09
a1 = 0.02608 | 0.204 | 0.233 | 0.264 | 0.295 | 0.327 | 0.359 | 0.391 | 1001.41
a1 = 0.05064 | 0.333 | 0.382 | 0.432 | 0.483 | 0.534 | 0.585 | 0.638 | 1005.55
a1 = 0.1023 | 0.581 | 0.666 | 0.753 | 0.841 | 0.931 | 1.02 | 1.11 | 1014.14
a1 = 0.2077 | 1.02 | 1.17 | 1.32 | 1.48 | 1.63 | 1.79 | 1.94 | 1031.96
a1 = 0.4748 | 1.92 | 2.2 | 2.49 | 2.79 | 3.09 | 3.38 | 3.68 | 1078.96
a1 = 0.7453 | 2.62 | 3 | 3.4 | 3.81 | 4.23 | 4.65 | 5.07 | 1129.79
a1 = 0.9563 | 3.01 | 3.46 | 3.85 | 4.41 | 4.91 | 5.41 | 5.91 | 1171.99
a1 = 1.191 | 3.27 | 3.78 | 4.31 | 4.86 | 5.42 | 6 | 6.57 | 1221.75
a1 = 1.298 | 3.34 | 3.87 | 4.42 | 5 | 5.59 | 6.19 | 6.8 | 1250.72
a1 = 1.489 | 3.32 | 3.87 | 4.45 | 5.05 | 5.68 | 6.32 | 6.97 | 1293.66
a1 = 1.623 | 3.22 | 3.77 | 4.35 | 4.96 | 5.6 | 6.25 | 6.92 | 1326.7
a1 = 1.826 | 2.96 | 3.49 | 4.07 | 4.68 | 5.32 | 5.99 | 6.67 | 1377.89

O=S(=O)([O-])[O-].[Co+2] [cobalt(II) sulfate] + O
Settings | electrical conductivity, 278.15 K [S/m] | electrical conductivity, 283.15 K [S/m] | electrical conductivity, 288.15 K [S/m] | electrical conductivity, 293.15 K [S/m] | electrical conductivity, 298.15 K [S/m] | electrical conductivity, 303.15 K [S/m] | electrical conductivity, 308.15 K [S/m] | mass density, 298.15 K [kg/m3]
a1 = 0.00551 | 0.0574 | 0.066 | 0.0749 | 0.084 | 0.0933 | 0.103 | 0.112 | 997.94
a1 = 0.02535 | 0.2 | 0.229 | 0.26 | 0.291 | 0.322 | 0.354 | 0.385 | 1001.16
a1 = 0.05135 | 0.338 | 0.388 | 0.439 | 0.491 | 0.544 | 0.597 | 0.649 | 1005.36
a1 = 0.1014 | 0.58 | 0.665 | 0.752 | 0.841 | 0.93 | 1.02 | 1.11 | 1013.44
a1 = 0.2522 | 1.19 | 1.36 | 1.54 | 1.72 | 1.9 | 2.09 | 2.27 | 1038.18
a1 = 0.4949 | 1.97 | 2.25 | 2.55 | 2.86 | 3.16 | 3.47 | 3.78 | 1079.59
a1 = 0.7706 | 2.63 | 3.03 | 3.43 | 3.85 | 4.27 | 4.7 | 5.12 | 1129.58
a1 = 0.9827 | 2.99 | 3.44 | 3.91 | 4.39 | 4.89 | 5.39 | 5.89 | 1170.36
a1 = 1.151 | 3.17 | 3.66 | 4.17 | 4.7 | 5.23 | 5.78 | 6.33 | 1204.34
a1 = 1.257 | 3.23 | 3.73 | 4.26 | 4.81 | 5.37 | 5.94 | 6.52 | 1227.86
a1 = 1.519 | 3.19 | 3.71 | 4.26 | 4.84 | 5.43 | 6.04 | 6.66 | 1286.2
a1 = 1.719 | 3.03 | 3.59 | 4.17 | 4.76 | 5.37 | 6 | 6.65 | 1331.86

O=S(=O)([O-])[O-].[Cd+2] [cadmium sulfate] + O
Settings | electrical conductivity, 278.15 K [S/m] | electrical conductivity, 283.15 K [S/m] | electrical conductivity, 288.15 K [S/m] | electrical conductivity, 293.15 K [S/m] | electrical conductivity, 298.15 K [S/m] | electrical conductivity, 303.15 K [S/m] | electrical conductivity, 308.15 K [S/m] | mass density, 298.15 K [kg/m3]
a1 = 0.00493 | 0.0507 | 0.0583 | 0.0658 | 0.0734 | 0.0813 | 0.0892 | 0.0972 | 998.06
a1 = 0.01043 | 0.092 | 0.105 | 0.119 | 0.132 | 0.146 | 0.16 | 0.174 | 999.18
a1 = 0.0299 | 0.209 | 0.239 | 0.269 | 0.298 | 0.328 | 0.358 | 0.387 | 1003.14
a1 = 0.0514 | 0.319 | 0.364 | 0.409 | 0.454 | 0.499 | 0.544 | 0.587 | 1007.53
a1 = 0.1001 | 0.537 | 0.612 | 0.687 | 0.761 | 0.836 | 0.91 | 0.981 | 1017.5
a1 = 0.2017 | 0.93 | 1.06 | 1.19 | 1.32 | 1.44 | 1.57 | 1.69 | 1038.74
a1 = 0.4092 | 1.61 | 1.83 | 2.05 | 2.27 | 2.49 | 2.71 | 2.92 | 1084.21
a1 = 0.6014 | 2.13 | 2.42 | 2.72 | 3.01 | 3.31 | 3.6 | 3.89 | 1129.51
a1 = 0.8202 | 2.6 | 2.97 | 3.33 | 3.7 | 4.07 | 4.43 | 4.8 | 1185.1
a1 = 1.001 | 2.96 | 3.38 | 3.79 | 4.21 | 4.63 | 5.05 | 5.47 | 1234.43
a1 = 1.209 | 3.1 | 3.56 | 4.01 | 4.47 | 4.95 | 5.42 | 5.9 | 1295.86
a1 = 1.378 | 3.16 | 3.63 | 4.11 | 4.6 | 5.1 | 5.61 | 6.12 | 1349.9
a1 = 1.486 | 3.13 | 3.62 | 4.11 | 4.61 | 5.12 | 5.65 | 6.18 | 1385.75
a1 = 1.609 | 3.04 | 3.53 | 4.02 | 4.53 | 5.06 | 5.6 | 6.14 | 1429.78
a1 = 1.798 | 2.8 | 3.28 | 3.77 | 4.28 | 4.81 | 5.36 | 5.91 | 1500.75
a1 = 1.939 | 2.53 | 2.99 | 3.46 | 3.95 | 4.47 | 5 | 5.55 | 1556.84
